Our source for the IC50 values is patent US7507860B2 (Pfizer Inc., priority 2004, dated 2009).

Assay [1] addresses T1, human androgen receptor (hAR) (Homo sapiens, UniProt P10275).
T1 construct: made in house; host or cells: baculovirus/Sf9 insect cells (crude extract)
T1 sequence (P10275 1-920): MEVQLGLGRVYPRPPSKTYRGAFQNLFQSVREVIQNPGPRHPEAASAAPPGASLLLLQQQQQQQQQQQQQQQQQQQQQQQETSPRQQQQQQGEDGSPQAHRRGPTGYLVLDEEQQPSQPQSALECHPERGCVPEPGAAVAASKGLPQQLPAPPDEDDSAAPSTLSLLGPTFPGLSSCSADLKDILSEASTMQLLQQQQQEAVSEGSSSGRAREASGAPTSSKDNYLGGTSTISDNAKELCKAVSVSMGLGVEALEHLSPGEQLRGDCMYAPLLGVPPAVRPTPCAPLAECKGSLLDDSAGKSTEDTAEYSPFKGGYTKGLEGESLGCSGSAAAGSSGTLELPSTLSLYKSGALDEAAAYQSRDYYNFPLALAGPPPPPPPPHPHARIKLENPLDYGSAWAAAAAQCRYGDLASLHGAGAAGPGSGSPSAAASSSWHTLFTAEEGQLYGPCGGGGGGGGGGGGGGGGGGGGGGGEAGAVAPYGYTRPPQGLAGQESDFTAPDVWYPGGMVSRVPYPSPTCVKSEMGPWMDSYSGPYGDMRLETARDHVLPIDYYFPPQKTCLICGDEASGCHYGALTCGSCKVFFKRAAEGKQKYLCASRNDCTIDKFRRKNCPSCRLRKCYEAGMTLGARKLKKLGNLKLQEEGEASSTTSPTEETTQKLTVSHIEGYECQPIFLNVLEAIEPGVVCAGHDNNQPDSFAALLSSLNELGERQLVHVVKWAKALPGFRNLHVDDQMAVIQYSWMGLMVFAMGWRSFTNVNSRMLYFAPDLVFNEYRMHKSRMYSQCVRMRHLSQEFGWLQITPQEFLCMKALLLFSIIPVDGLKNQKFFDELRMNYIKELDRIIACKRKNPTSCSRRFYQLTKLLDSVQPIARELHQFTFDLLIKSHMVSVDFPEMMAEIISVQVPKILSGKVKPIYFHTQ
The assay can be described thus: Competitive binding analysis on baculovirus/Sf9 generated hAR extracts with 3H-DHT tracer. Conditions: hAR extract, 1 nM 3H-DHT, one hour at 4° C; mean of multiple tests; read-out: AR Binding IC50. The gist of the method: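 Baculovirus/Sf9-expressed hAR extract incubated with hydroxylapatite, 1 nM 3H-DHT and decreasing compound concentrations for 1 h at 4 °C, then washed three times to remove unbound tracer. Bound 3H-DHT compared with no-competitor maximum; affinity given as concentration inhibiting half of maximum binding, mean of multiple tests.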

Assay [2] deals with T2, androgen receptor (Homo sapiens, UniProt P10275).
T2 sequence (P10275 1-920 Q868H): T1 sequence (P10275 1-920) with Q868H
As to the kind of experiment: AR antagonist cell assay (MDA-MB453-MMTV clone 54-19 luciferase reporter, 100 pM DHT). Format: cell-based. As for the experimental part:
The compounds ability to antagonize the effects of androgen on the androgen receptor were determined in a whole cell assay as described immediately below.
Experimental Procedure for AR Antagonist Cell Assay
This cell line is a stable transfected cell line with MDA-MB453 cell background (a human breast tumor cell line expressing androgen receptor). A MMTV minimal promoter containing ARE was first cloned in front of a firefly luciferase reporter gene. Then the cascade was cloned into transfection vector pUV120puro. […] Puromycin resistant stable cell line was selected. Cell Culture Media and Reagents:
Plating medium: DMEM (phenol red free), 10% charcoal treated HyClone serum, 1% L-glutamine
Assay medium: DMEM (phenol red free), 1% charcoal treated HyClone serum, 1% L-glutamine, and 1% penicillin/streptomycin
• 1. Cells are maintained in culture medium, splitting cells when they reach 80-90% confluence • 2. To test compounds, 10,000 cells/well are plated to opaque 96 cell culture plate in 100 ul/well plating medium, culture for overnight at 37° C. in cell culture incubator • 3. […] Add 10 ul/well freshly prepared DHT (final concentration at 100 pM) to each well, incubate at 37° C. for 17 hr (overnight) • 5.
The results are reported as the mean of multiple tests as described below (the numbers of tests are indicated in the footnote). N.D. denotes that the compound was not tested.

Where [3] appears, read: MDA-MB453-MMTV clone 54-19, inhibition of 100 pM DHT induction, 17 hr; mean of multiple tests; read-out: AR Cell IC50.
Where [4] appears, read: read-out: AR Cell IC50; MDA-MB453-MMTV clone 54-19, inhibition of 100 pM DHT induction, 17 hr; mean of multiple tests.

Changes are numbered by the printed parent chain. Like-named read-outs stand apart in the source and are kept apart here.

Take `CCCC(Oc1ccc(C#N)c(C(F)(F)F)c1)C(=O)NC1CCc2ccccc21` (stereo not shown) [Example 57, 2-(4-Cyano-3-trifluoromethyl-phenoxy)-pentanoic acid indan-1-yl-amide]: the concentration for half-maximal inhibition (IC50) in assay [1] came to 0.146 µM; in assay [2] (setting [3]), 0.561 µM.
As for `CC(C)CC(Oc1ccc(C#N)c(C(F)(F)F)c1)C(=O)NCCc1c[nH]c2ccccc12` (stereo not shown) [Example 59, 2-(4-Cyano-3-trifluoromethyl-phenoxy)-4-methyl-pentanoic acid [2-(1H-indol-3-yl)ethyl]amide], the half-maximal inhibitory concentration (IC50) is 0.048 µM in assay [1] and 0.101 µM in assay [2] (setting [3]).
Turning to `CCC[C@H](Oc1ccc(C#N)c(Cl)c1)C(=O)NCCc1ccc(O)cc1` [Example 105, (S)-2-(3-Chloro-4-cyano-phenoxy)-pentanoic acid [2-(4-hydroxy-phenyl)ethyl]amide], the IC50 in assay [1] worked out at 0.241 µM; in assay [2] (setting [4]), 0.088 µM.
On to `CCCC(Oc1ccc(C#N)c(C(F)(F)F)c1)C(=O)NCc1ccc2nsnc2c1` (stereo not shown) [Example 31, 2-(4-Cyano-3-trifluoromethyl-phenoxy)-pentanoic acid (benzo[1,2,5]thiadiazo-5-yl-methyl)-amide], for which the 50% inhibitory concentration (IC50) in assay [1] was 0.083 µM; in assay [2] (setting [3]), greater than 1 µM.
Turning to `COc1cccc(CNC(=O)C(CC(C)C)Oc2ccc(C#N)c(C(F)(F)F)c2)c1` (stereo not shown) [Example 33, 2-(4-Cyano-3-trifluoromethyl-phenoxy)-4-methyl-pentanoic acid-3-methoxy-benzylamide], the half-inhibitory concentration (IC50) was 0.062 µM in assay [1] and 0.864 µM in assay [2] (setting [3]).
The matching figures for `CC(C)CC(Oc1ccc(C#N)c(C(F)(F)F)c1)C(=O)N(CCO)C(C)C` (stereo not shown) [Example 79, 2-(4-Cyano-3-trifluoromethyl-phenoxy)-4-methyl-pentanoic acid (2-hydroxy-ethyl)isopropyl-amide]: 3.13 µM and greater than 1 µM.
For the compound `CC(C)CC(Oc1ccc(C#N)c(C(F)(F)F)c1)C(=O)NCc1ccc(O)c(O)c1` (stereo not shown) [Example 74, 2-(4-Cyano-3-trifluoromethyl-phenoxy)-4-methyl-pentanoic acid-3,4-dihydroxy-benzylamide], the values for the IC50 in assay [1] and in assay [2] (setting [3]) were 0.139 µM and 0.976 µM, respectively.
As for `CCC[C@H](Oc1ccc(C#N)c(C(F)(F)F)c1)C(=O)NCCc1c[nH]c2ccccc12` [Example 108, (S)-2-(4-Cyano-3-trifluoromethyl-phenoxy)-pentanoic acid [2-(1H-indol-3-yl)ethyl]-amide], the figures for the IC50 in assay [1] and in assay [2] (setting [3]) were 0.021 µM and less than 0.00032 µM, respectively.
For `CCCC(Oc1ccc(C#N)c(C(F)(F)F)c1)C(=O)NCc1ccc(OC)cc1` (stereo not shown) [Example 46, 2-(4-Cyano-3-trifluoromethyl-phenoxy)-pentanoic acid-4-methoxy-benzylamide], the 50% inhibitory concentration (IC50) in assay [1] was 0.103 µM; in assay [2] (setting [3]), 0.638 µM.
The matching figures for `CC(C)CC(Oc1ccc(C#N)c(C(F)(F)F)c1)C(=O)NC1CCc2ccccc21` (stereo not shown) [Example 54, 2-(4-Cyano-3-trifluoromethyl-phenoxy)-4-methyl-pentanoic acid indan-1-yl-amide]: 0.07 µM and 0.836 µM.
Consider `CC(C)CC(Oc1ccc(C#N)c(C(F)(F)F)c1)C(=O)NCC1CC1` (stereo not shown) [Example 7, 2-(4-Cyano-3-trifluoromethyl-phenoxy)-4-methyl-pentanoic acid cyclopropylmethyl-amide], for which the IC50 in assay [1] came out at 0.107 µM; in assay [2] (setting [3]) it was 0.661 µM.
As for `CC(C)CC(Oc1ccc(C#N)c(C(F)(F)F)c1)C(=O)NC(C)c1cccs1` (stereo not shown) [Example 13, 2-(4-Cyano-3-trifluoromethyl-phenoxy)-4-methyl-pentanoic acid (1-thiophen-2-ylethyl)-amide], the half-maximal inhibitory concentration (IC50) in assay [1] was found to be 0.24 µM; in assay [2] (setting [3]), 0.398 µM.
For `CCCC(Oc1ccc(C#N)c(C(F)(F)F)c1)C(=O)N[C@H](C)c1ccc(O)cc1` (stereo in doubt) [Example 119, 2-(4-Cyano-3-trifluoromethyl-phenoxy)-pentanoic acid [1-(4-hydroxy-phenyl)-ethyl]-amide], the IC50 in assay [1] was determined as 0.086 µM; in assay [2] (setting [3]), 0.117 µM.
On the same counts, the results for `CCCOCCCNC(=O)C(CC(C)C)Oc1ccc(C#N)c(C(F)(F)F)c1` (stereo not shown) [Example 85, 2-(4-Cyano-3-trifluoromethyl-phenoxy)-4-methyl-pentanoic acid (3-propoxy-propyl)-amide] are 0.117 µM and greater than 1 µM.
As to `Cc1c(O)cccc1NC(=O)C(CC(C)C)Oc1ccc(C#N)c(C(F)(F)F)c1` (stereo not shown) [Example 84, 2-(4-Cyano-3-trifluoromethyl-phenoxy)-4-methyl-pentanoic acid (3-hydroxy-2-methyl-phenyl)-amide], the IC50 in assay [1] is 0.112 µM; in assay [2] (setting [3]) it was greater than 1 µM.
In the case of `CCCC(Oc1ccc(C#N)c(C(F)(F)F)c1)C(=O)NCc1ccccc1OC` (stereo not shown) [Example 41, 2-(4-Cyano-3-trifluoromethyl-phenoxy)-pentanoic acid-2-methoxy-benzylamide], the IC50 in assay [1] was 0.171 µM; in assay [2] (setting [3]) it was 0.13 µM.
The matching figures for `CC(C)CC(Oc1ccc(C#N)c(C(F)(F)F)c1)C(=O)NC(C)c1cccnc1` (stereo not shown) [Example 15, 2-(4-Cyano-3-trifluoromethyl-phenoxy)-4-methyl-pentanoic acid (1-pyridin-3-ylethyl)-amide]: 0.309 µM and greater than 1 µM.
As to `CCCC(Oc1ccc(C#N)c(C(F)(F)F)c1)C(=O)NCCc1c[nH]c2ccc(OC)cc12` (stereo not shown) [Example 97, 2-(4-Cyano-3-trifluoromethyl-phenoxy)-pentanoic acid [2-(5-methoxy-1H-indol-3-yl)-ethyl]-amide], the results for the IC50 in assay [1] and in assay [2] (setting [4]) were 0.111 µM and 0.026 µM, respectively.
Turning to `CC(C)CC(Oc1ccc(C#N)c(C(F)(F)F)c1)C(=O)NC(C)C` (stereo not shown) [Example 2, 2-(4-Cyano-3-trifluoromethyl-phenoxy)-4-methyl-pentanoic acid isopropylamide], the IC50 in assay [1] was 0.064 µM; in assay [2] (setting [3]), 0.142 µM.
Turning to `CCCOCCNC(=O)C(CC(C)C)Oc1ccc(C#N)c(C(F)(F)F)c1` (stereo not shown) [Example 81, 2-(4-Cyano-3-trifluoromethyl-phenoxy)-4-methyl-pentanoic acid (2-propoxy-ethyl)amide], the figures for the IC50 in assay [1] and in assay [2] (setting [3]) were 0.142 µM and greater than 1 µM, respectively.
